# How the values were obtained:
# normal human plasma = assay: Activated partial thromboplastin time assay (aPTT); format: biochemical; conditions: 50% increase clotting time / CAT EC50
# Description: The aPTT assay was performed to study anticoagulant activities of NASP. In brief, 50 μL of thawed normal human plasma pool (George King Biomedical, Overland Park, Kans.) was mixed with 5 μL of NASP sample (0-60 μg/mL final plasma concentration). NASPs were diluted in imidazole buffer (3.4 g/L imidazole; 5.85 g/L NaCl, pH 7.4) containing 1% albumin (Baxter, Austria). After addition of 50 μL aPTT reagent (STA APTT, Roche) the samples were incubated for 4 min at 37° C. Clotting was initiated by 50 μL of 25 mM CaCl2 solution (Baxter, Austria) and recorded for up to 5 min. All pipetting steps and clotting time measurements were carried out with an ACL Pro Elite (Instrumentation Laboratory, Bedford, Mass.) instrument. Samples were run in duplicate.
# For data analysis, clotting time is plotted against the NASP concentration. Concentrations where the clotting time is 50% increased over the normal plasma control are determined using a linear curve fit.
# contact pathway = assay: CAT in normal plasma with and without CTI; format: biochemical; conditions: normal plasma, 1 pM hTF, 4 μM PL, ±41 μg/mL CTI
# [1] = tested on: FVIII-inhibited guinea pigs; assay: Ex-vivo whole blood TEG in FVIII-inhibited guinea pigs; parameters: species or system guinea pig
# Description: Male Dunkin Hartley guinea pigs were intravenously injected with a goat anti-human FVIII inhibitor plasma at a dose of 42 BU/kg (1.9 mL/kg) 45 min before sampling. After 40 min, NASP was intravenously administered to the animals at 0.05, 0.15, 0.45 or 1.35 mg/kg (N=5 per group). 300 U/kg FEIBA (Baxter, BioScience, Austria) served as a positive control and saline as a vehicle control. Shortly after the injection, the Vena cava was punctured and blood was collected in the presence of citrate (ratio 1:9) for whole blood TEG analysis. Measurements were performed using a thromboelastography (TEG) hemostasis analyzer 5000 (Haemonetics Corp, USA) at 37° C. Every blood sample was prepared by pre-warming 204 of a 0.2 M CaCl2) solution in a TEG cuvette at 37° C. adding 340 μL of blood, mixing, and then immediately starting the TEG recording. The measurement proceeded for at least 120 min. The TEG parameters of clotting time (R-time), rapidity of clot strengthening (angle) and maximum clot firmness (MA) were recorded. The primary endpoint R-time was plotted and the median value of the different dosing groups compared with each other.
# [2] = Pharmacokinetics after oral administration; format: in vivo, CD rats
# Description: The preparations were either unfractionated (average MW of 24 kD) or fractionated by a filter method (average MW of 14 kD). The substances were prepared in a physiological saline solution without enhancer or with 0.8 wt % DOC or with 3 wt % chitosan+0.5 mg/mL bromelain. Each group dosed with NASP consisted of six rats. For each formulation, three additional rats served as vehicle controls. Blood samples were collected in the presence of citrate (ratio 1:9) before dosing and 15, 30 min, 1, 5, and 7 h after the dosing. Platelet-poor plasma was prepared by two centrifugation steps at 3000 rpm for 10 min.
# The NASPs in the plasma samples were detected by a fluorescence assay that uses the dye HeparinRed that specifically binds to sulfated polysaccharides. Experiments were performed in a black half-area 96-well microtiter plate (Costar). For the S-6-CI standard curves (0.185 to 2.5 μg/mL), 10 μL of rat plasma was spiked with 5 μL of S-6-CI and mixed with 40 μL of human pooled plasma to minimize the matrix effect of individual animals. Then 5 μl HeparinRed dye was added and incubated in the dark at RT for 5 min. Plasma samples of the dosed animals were treated accordingly, however, the 5 μL S-6-CI were replaced by buffer. Fluorescent signals were detected with a Tecan Safire2™ microplate fluorescence reader (Ex/Em 580/620 nm) and the S-6-CI quantified based on the S-6-CI standard curve. […]
substance,measurement,setting,value
sulfated 6-carboxy-icodextrin,Ratio aPTT/CAT,normal human plasma,very good
same,concentration activating the contact pathway,contact pathway,> 33000 ng/mL
same,median R-time (clotting time),"[1]; 0.15 and 0.45 mg/kg i.v., no clotting after 2 hours without treatment",110 min
same,"procoagulant effect, reduction in R-time (in words)","[1]; TEG five minutes after i.v. administration, NASP at 0.15 and 0.45 mg/kg",procoagulant effect superior to vehicle control
same,time of highest plasma level after dosing,[2]; oral 50 mg/kg,60 min
same,plasma levels at all time points,[2]; oral 50 mg/kg with chitosan+bromelain,< 300 ng/mL

# Source: patent publication US20200215099A1, “NON-ANTICOAGULANT SULFATED OR SULFONATED POLYSACCHARIDES” (Baxalta Incorporated, priority 2012, published 2020)
